The source of these data is patent US12319648B2, “Fluorinated phenylacetic acid derivatives in a weed control method” (SYNGENTA CROP PROTECTION AG, priority 2019, dated 2025).

Holding throughout (assay type): in vivo
Assay [1] relates to Setaria faberi (SETFA). The experiment in a line: Post-emergence herbicidal glasshouse test. The following applies: for percentage damage caused to the plant, five-point scale, SETFA: post-emergence, 250 g/ha, 13 days after application; for % phytotoxicity SETFA: comparative post-emergence test. As for the experimental part:
(§1) Seeds of a variety of test species are shown in standard soil in pots Amaranthus retoflexus (AMARE), Ipomoea hederacea (IPOHE), Solanum nigrum (SOLNI), Lolium perenne (LOLPE). Echinochloa crus-galli (ECHCG), Setaria faberi (SETFA)). After cultivation for one day (pre-emergence) or after 8 days cultivation (post-emergence) under controlled conditions in a glasshouse (at 24/16° C., day/night; 14 hours light; 65% humidity), the plants are sprayed with an aqueous spray solution derived from the formulation of the technical active ingredient in acetone/water (50:50) solution containing 0.5% Tween 20 (polyoxyethylene sorbitan monolaurate, CAS RN 9005-64-5). Compounds are applied at 250 g/ha unless otherwise stated. The test plants are then grown in a glasshouse under controlled conditions in a glasshouse (at 24/16° C., day/night; 14 hours light; 65% humidity) and watered twice daily. After 13 days for pre and post-emergence, the test is evaluated for the percentage damage caused to the plant. The biological activities are shown in the following table on a five-point scale (5=81-100%; 4=61-80%; 3=41-60%; 2=21-40%; 1=0-20%).
(§2) Using the experimental conditions outlined above, a further test is conducted to compare the herbicidal properties of the difluro containing compound (1.014) with a representative compound (C1) referred to in GB901553. The compounds are applied at 1000 g/ha and 500 g/ha. The test is evaluated for the percentage damage caused to the plant (% phytotoxicity).

The subject of assay [2] is Echinochloa crus-galli (ECHCG). The experiment in a line: Post-emergence herbicidal glasshouse test. To be noted: for percentage damage caused to the plant, five-point scale, ECHCG: post-emergence, 250 g/ha, 13 days after application; for % phytotoxicity ECHCG: comparative post-emergence test. How it is done: as §1, §2
In assay [3] the test system is Solanum nigrum (SOLNI). The experiment in a line: Post-emergence herbicidal glasshouse test. The following applies: for percentage damage caused to the plant, five-point scale, SOLNI: post-emergence, 250 g/ha, 13 days after application; for % phytotoxicity SOLNI: comparative post-emergence test. As for the experimental part: as §1, §2
The test system of assay [4] is Amaranthus retoflexus (AMARE). The experiment in a line: Post-emergence herbicidal glasshouse test. The following applies: for percentage damage caused to the plant, five-point scale, AMARE: post-emergence, 250 g/ha, 13 days after application; for % phytotoxicity AMARE: comparative post-emergence test. How it is done:
as §1, §2

The test system of assay [5] is Ipomoea hederacea (IPOHE). The experiment in a line: Post-emergence herbicidal glasshouse test. To be noted: for percentage damage caused to the plant, five-point scale, IPOHE: post-emergence, 250 g/ha, 13 days after application; for % phytotoxicity IPOHE: comparative post-emergence test. As for the experimental part: as §1, §2
Assay [6] has as its system Lolium perenne (LOLPE). Description: Post-emergence herbicidal glasshouse test. To be noted: for percentage damage caused to the plant, five-point scale, LOLPE: post-emergence, 250 g/ha, 13 days after application; for % phytotoxicity LOLPE: comparative post-emergence test. How it is done: as §1, §2
Assay [7] concerns Setaria faberi (SETFA). Description: Pre-emergence herbicidal glasshouse test. The following applies: for percentage damage caused to the plant, five-point scale, SETFA: pre-emergence, 250 g/ha, 13 days after application; for % phytotoxicity SETFA: comparative pre-emergence test. As for the experimental part: as §1, §2
Assay [8] deals with Echinochloa crus-galli (ECHCG). The experiment in a line: Pre-emergence herbicidal glasshouse test. The following applies: for percentage damage caused to the plant, five-point scale, ECHCG: pre-emergence, 250 g/ha, 13 days after application; for % phytotoxicity ECHCG: comparative pre-emergence test. As for the experimental part:
as §1, §2

In assay [9] the test system is Solanum nigrum (SOLNI). Description: Pre-emergence herbicidal glasshouse test. To be noted: for percentage damage caused to the plant, five-point scale, SOLNI: pre-emergence, 250 g/ha, 13 days after application; for % phytotoxicity SOLNI: comparative pre-emergence test. How it is done:
as §1, §2

Assay [10] concerns Amaranthus retoflexus (AMARE). Description: Pre-emergence herbicidal glasshouse test. The following applies: for percentage damage caused to the plant, five-point scale, AMARE: pre-emergence, 250 g/ha, 13 days after application; for % phytotoxicity AMARE: comparative pre-emergence test. How it is done:
as §1, §2

Assay [11] relates to Ipomoea hederacea (IPOHE). Description: Pre-emergence herbicidal glasshouse test. To be noted: for percentage damage caused to the plant, five-point scale, IPOHE: pre-emergence, 250 g/ha, 13 days after application; for % phytotoxicity IPOHE: comparative pre-emergence test. How it is done: as §1, §2
In assay [12] the test system is Lolium perenne (LOLPE). The experiment in a line: Pre-emergence herbicidal glasshouse test. To be noted: for percentage damage caused to the plant, five-point scale, LOLPE: pre-emergence, 250 g/ha, 13 days after application; for % phytotoxicity LOLPE: comparative pre-emergence test. How it is done:
as §1, §2

On to `O=C(O)C(F)(F)c1cc(Cl)ccc1Cl` [Compound 1.012], for which the “percentage damage caused to the plant, five-point scale, SETFA” value (“percentage damage caused … SETFA” below) in the assay with Setaria faberi (SETFA) [1] and in the assay on Setaria faberi (SETFA) [7] was 1 (1=0-20%) in each case. In addition, the “percentage damage caused to the plant, five-point scale, ECHCG” value (“percentage damage caused … ECHCG” below) in [2] and in assay [8] was 1 (1=0-20%) in each case. The “percentage damage caused to the plant, five-point scale, SOLNI” value (“percentage damage caused … SOLNI” below) with Solanum nigrum (SOLNI) [3] is 4 (4=61-80%); with Solanum nigrum (SOLNI) [9] it was 3 (3=41-60%). For the same compound, the “percentage damage caused to the plant, five-point scale, AMARE” value (“percentage damage caused … AMARE” below) in [4] and in assay [10] was 4 (4=61-80%) each time. Also, the “percentage damage caused to the plant, five-point scale, IPOHE” value (“percentage damage caused … IPOHE” below) in [5] and in assay [11] was 3 (3=41-60%) throughout. Moreover, the “percentage damage caused to the plant, five-point scale, LOLPE” value (“percentage damage caused … LOLPE” below) in the assay on Lolium perenne (LOLPE) [6] and in the assay with Lolium perenne (LOLPE) [12] was 1 (1=0-20%) throughout.

For `O=C(O)C(F)(F)c1cccc(Cl)c1Cl` [Compound 1.014], the “% phytotoxicity SETFA” value with Setaria faberi (SETFA) [1] (500 g/ha), in the assay with Setaria faberi (SETFA) [1] (1000 g/ha), with Setaria faberi (SETFA) [7] (500 g/ha) and in the assay on Setaria faberi (SETFA) [7] (1000 g/ha) was 90% throughout. The figures for the “percentage damage caused … SETFA” value in the assay with Setaria faberi (SETFA) [1] and in the assay on Setaria faberi (SETFA) [7] were 5 (5=81-100%) and 4 (4=61-80%), respectively. Further, the “% phytotoxicity ECHCG” value in [2] (500 g/ha) worked out at 80%; in assay [2] (1000 g/ha) it was 90%; in assay [8] (500 g/ha), 30%; in assay [8] (1000 g/ha), 80%. Moreover, the “percentage damage caused … ECHCG” value in assay [2] and in assay [8] was 5 (5=81-100%) throughout. For the same compound, the “% phytotoxicity SOLNI” value with Solanum nigrum (SOLNI) [3] (500 g/ha), in the assay on Solanum nigrum (SOLNI) [3] (1000 g/ha), with Solanum nigrum (SOLNI) [9] (500 g/ha) and with Solanum nigrum (SOLNI) [9] (1000 g/ha) was 100% throughout. The “percentage damage caused … SOLNI” value in the assay on Solanum nigrum (SOLNI) [3] and with Solanum nigrum (SOLNI) [9] was 5 (5=81-100%) throughout. The “% phytotoxicity AMARE” value in assay [4] (500 g/ha) turned out to be 100%; in [4] (1000 g/ha), 100%; in [10] (500 g/ha), 90%; in assay [10] (1000 g/ha), 100%. In addition, the “percentage damage caused … AMARE” value in assay [4] and in assay [10] was 5 (5=81-100%) in each case. For the same compound, the “% phytotoxicity IPOHE” value was determined as 90% in assay [5] (500 g/ha), 90% in assay [5] (1000 g/ha), 80% in assay [11] (500 g/ha) and 90% in assay [11] (1000 g/ha). Besides, the “percentage damage caused … IPOHE” value in assay [5] and in [11] was 5 (5=81-100%) in each case. For the same compound, the “% phytotoxicity LOLPE” value in the assay on Lolium perenne (LOLPE) [6] (500 g/ha) turned out to be 10%; with Lolium perenne (LOLPE) [6] (1000 g/ha), 20%; in the assay on Lolium perenne (LOLPE) [12] (500 g/ha) it was 10%; in the assay on Lolium perenne (LOLPE) [12] (1000 g/ha), 40%. The “percentage damage caused … LOLPE” value in the assay on Lolium perenne (LOLPE) [6] and with Lolium perenne (LOLPE) [12] was 1 (1=0-20%) in each case.

Consider `O=C(O)C(F)(F)c1cccc(Cl)c1F` [Compound 1.029], for which the results for the “percentage damage caused … SETFA” value with Setaria faberi (SETFA) [1] and in the assay on Setaria faberi (SETFA) [7] were 3 (3=41-60%) and 2 (2=21-40%), respectively. In addition, the “percentage damage caused … ECHCG” value is recorded as 2 (2=21-40%) in assay [2] and 1 (1=0-20%) in assay [8]. Further, the results for the “percentage damage caused … SOLNI” value with Solanum nigrum (SOLNI) [3] and with Solanum nigrum (SOLNI) [9] were 4 (4=61-80%) and 5 (5=81-100%), respectively. The “percentage damage caused … AMARE” value in [4] and in assay [10] was 5 (5=81-100%) each time. In addition, the “percentage damage caused … IPOHE” value in assay [5] and in [11] was 3 (3=41-60%) each time. The “percentage damage caused … LOLPE” value in the assay with Lolium perenne (LOLPE) [6] is listed as 1 (1=0-20%); in the assay with Lolium perenne (LOLPE) [12], 2 (2=21-40%).

Regarding `O=C(O)C(F)(F)c1cccc(F)c1F` [Compound 1.031], the “percentage damage caused … SETFA” value in the assay with Setaria faberi (SETFA) [1] and with Setaria faberi (SETFA) [7] was 1 (1=0-20%) each time. Besides, the “percentage damage caused … ECHCG” value in assay [2] and in assay [8] was 1 (1=0-20%) in each case. Also, the results for the “percentage damage caused … SOLNI” value in the assay with Solanum nigrum (SOLNI) [3] and in the assay on Solanum nigrum (SOLNI) [9] were 3 (3=41-60%) and 1 (1=0-20%), respectively. The “percentage damage caused … AMARE” value in assay [4] is 3 (3=41-60%); in [10] it was 1 (1=0-20%). Besides, the “percentage damage caused … IPOHE” value in assay [5] and in assay [11] was 3 (3=41-60%) in each case. The “percentage damage caused … LOLPE” value in the assay on Lolium perenne (LOLPE) [6] and in the assay on Lolium perenne (LOLPE) [12] was 1 (1=0-20%) each time.

For the compound `O=C(O)C(F)(F)c1cccc(F)c1Br` [Compound 1.032], the “percentage damage caused … SETFA” value in the assay on Setaria faberi (SETFA) [1] and in the assay on Setaria faberi (SETFA) [7] was 1 (1=0-20%) in each case. Further, the “percentage damage caused … ECHCG” value in assay [2] and in assay [8] was 1 (1=0-20%) each time. Further, the “percentage damage caused … SOLNI” value in the assay with Solanum nigrum (SOLNI) [3] and in the assay on Solanum nigrum (SOLNI) [9] was 4 (4=61-80%) in each case. The “percentage damage caused … AMARE” value in assay [4] and in assay [10] was 4 (4=61-80%) each time. Besides, the “percentage damage caused … IPOHE” value in assay [5] and in assay [11] was 4 (4=61-80%) throughout. In addition, the “percentage damage caused … LOLPE” value with Lolium perenne (LOLPE) [6] and in the assay with Lolium perenne (LOLPE) [12] was 1 (1=0-20%) throughout.

Turning to `O=C(O)C(F)(F)c1cccc(Br)c1F` [Compound 1.033], the “percentage damage caused … SETFA” value in the assay with Setaria faberi (SETFA) [1] and in the assay with Setaria faberi (SETFA) [7] was 4 (4=61-80%) each time. The “percentage damage caused … ECHCG” value in [2] and in [8] was 4 (4=61-80%) throughout. Also, the “percentage damage caused … SOLNI” value in the assay with Solanum nigrum (SOLNI) [3] and in the assay on Solanum nigrum (SOLNI) [9] was 5 (5=81-100%) in each case. The “percentage damage caused … AMARE” value in assay [4] and in [10] was 5 (5=81-100%) in each case. In addition, the “percentage damage caused … IPOHE” value in assay [5] and in [11] was 4 (4=61-80%) each time. Also, the “percentage damage caused … LOLPE” value in the assay on Lolium perenne (LOLPE) [6] and in the assay on Lolium perenne (LOLPE) [12] was 1 (1=0-20%) in each case.

For the compound `O=C(O)C(F)(F)c1cccc(F)c1Cl` [Compound 1.036], the “percentage damage caused … SETFA” value with Setaria faberi (SETFA) [1] and in the assay with Setaria faberi (SETFA) [7] was 1 (1=0-20%) throughout. The “percentage damage caused … ECHCG” value in assay [2] and in [8] was 1 (1=0-20%) in each case. In addition, the “percentage damage caused … SOLNI” value in the assay with Solanum nigrum (SOLNI) [3] and in the assay with Solanum nigrum (SOLNI) [9] was 4 (4=61-80%) each time. Also, the “percentage damage caused … AMARE” value in assay [4] and in assay [10] was 4 (4=61-80%) each time. Also, the “percentage damage caused … IPOHE” value in [5] and in [11] was 4 (4=61-80%) throughout. Also, the “percentage damage caused … LOLPE” value with Lolium perenne (LOLPE) [6] and in the assay with Lolium perenne (LOLPE) [12] was 1 (1=0-20%) throughout.
